Data as given in patent US12421211B2, “Heterocyclic compounds” (Hoffmann-La Roche Inc., priority 2021, dated 2025).
Counter-ions that a name gives are not always drawn.

test system: Acinetobacter baumannii ATCC17961; test: Antimicrobial susceptibility testing: 90% growth inhibitory concentration (IC90) determination; type: cell-based; details: Acinetobacter baumannii, ATCC17961, 16 h, 90% growth inhibitory concentration, Acinetobacter baumannii ATCC17961, Iso-Sensitest broth, OD 600 nm over 16 h; read-out: ATCC 17961 IC90
How it was run: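 Growth inhibition derived in log phase from OD600 kinetics (every 20 minutes, 16h, 35±2° C) of ATCC17961 in Iso-Sensitest medium, inoculum ~5×10^5 CFU/ml. Compounds tested as twofold series, 10 points (e.g. 50 to 0.097 μM final); IC90 and IC50 reported.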

Row | IC90 [nM] | Structure (SMILES)
1 | 320 | COCCn1nc(C)c(-c2ccc(-c3cnc(C(=O)Nc4ccc(C(=O)N5CCN(C(=O)C[N+]6(C)CCC(O)C6)CC5)c(Cl)c4)n3C)c(F)c2F)c1C (centres unmarked) [Example C11, N-[3-chloro-4-[4-[2-(3-hydroxy-1-methyl-pyrrolidin-1-ium-1-yl)acetyl]piperazine-1-carbonyl]phenyl]-5-[2,3-difluoro-4-[1-(2-methoxyethyl)-3,5-dimethyl-pyrazol-4-yl]phenyl]-1-methyl-imidazole-2-carboxamide; formate]
2 | 82 | COCCn1ncc(-c2ccc(-c3cnc(C(=O)Nc4ccc(C(=O)N5CCN(C(=O)C[N+]6(C)CCCC6)CC5)c(Cl)c4)n3C)c(F)c2F)c1C [Example C14, N-[3-chloro-4-[4-[2-(1-methylpyrrolidin-1-ium-1-yl)acetyl]piperazine-1-carbonyl]phenyl]-5-[2,3-difluoro-4-[1-(2-methoxyethyl)-5-methyl-pyrazol-4-yl]phenyl]-1-methyl-imidazole-2-carboxamide; 2,2,2-trifluoroacetate]
3 | 280 | COCCn1cc(-c2ccc(-c3cnc(C(=O)Nc4ccc(C(=O)N5CCN(C(=O)[C@@H]6[C@@H](O)CC[N+]6(C)C)CC5)c(Cl)c4)n3C)c(F)c2F)c(C)n1 [Example D1, N-[3-chloro-4-[4-[(2S,3S)-3-hydroxy-1,1-dimethyl-pyrrolidin-1-ium-2-carbonyl]piperazine-1-carbonyl]phenyl]-5-[2,3-difluoro-4-[1l-(2-methoxyethyl)-3-methyl-pyrazol-4-yl]phenyl]-1-methyl-imidazole-2-carboxamide; formate]
4 | 210 | COCCn1cc(-c2ccc(-c3cnc(C(=O)Nc4ccc(C(=O)N5CCN(C(=O)C6CC[N+](C)(C)CC6O)CC5)c(Cl)c4)n3C)c(F)c2F)c(C)n1 (centres unmarked) [Example D2, N-[3-chloro-4-[4-(3-hydroxy-1,1-dimethyl-piperidin-1-ium-4-carbonyl)piperazine-1-carbonyl]phenyl]-5-[2,3-difluoro-4-[1-(2-methoxyethyl)-3-methyl-pyrazol-4-yl]phenyl]-1-methyl-imidazole-2-carboxamide; formate]
5 | 85 | COCCn1ncc(-c2ccc(-c3cnc(C(=O)Nc4ccc(C(=O)N5CCC(C(=O)N6CC[N+](C)(C)C(CO)C6)CC5)c(Cl)c4)n3C)c(F)c2F)c1C (centres unmarked) [Example D6, N-[3-chloro-4-[4-[3-(hydroxymethyl)-4,4-dimethyl-piperazin-4-ium-1-carbonyl]piperidine-1-carbonyl]phenyl]-5-[2,3-difluoro-4-[1-(2-methoxyethyl)-5-methyl-pyrazol-4-yl]phenyl]-1-methyl-imidazole-2-carboxamide; formate]
6 | 150 | COCCn1cc(-c2ccc(-c3cnc(C(=O)Nc4ccc(C(=O)N5CCN(C(=O)[C@@H]6C[C@@H](O)C[N+]6(C)C)CC5)c(Cl)c4)n3C)c(F)c2F)c(C)n1 [Example D7, N-[3-chloro-4-[4-[(2S,4R)-4-hydroxy-1,1-dimethyl-pyrrolidin-1-ium-2-carbonyl]piperazine-1-carbonyl]phenyl]-5-[2,3-difluoro-4-[1-(2-methoxyethyl)-3-methyl-pyrazol-4-yl]phenyl]-1-methyl-imidazole-2-carboxamide; formate]
7 | 300 | COCCn1cc(-c2ccc(-c3cnc(C(=O)Nc4ccc(C(=O)N5CCN(C(=O)[C@H]6C[C@H](O)C[N+]6(C)C)CC5)c(Cl)c4)n3C)c(F)c2F)c(C)n1 [Example D8, N-[3-chloro-4-[4-[(2R,4S)-4-hydroxy-1,1-dimethyl-pyrrolidin-1-ium-2-carbonyl]piperazine-1-carbonyl]phenyl]-5-[2,3-difluoro-4-[1-(2-methoxyethyl)-3-methyl-pyrazol-4-yl]phenyl]-1-methyl-imidazole-2-carboxamide; formate]
8 | 300 | COCCn1cc(-c2ccc(-c3cnc(C(=O)Nc4ccc(C(=O)N5CCN(C(=O)[C@H]6C[C@@H](O)C[N+]6(C)C)CC5)c(Cl)c4)n3C)c(F)c2F)c(C)n1 [Example D9, N-[3-chloro-4-[4-[(2R,4R)-4-hydroxy-1,1-dimethyl-pyrrolidin-1-ium-2-carbonyl]piperazine-1-carbonyl]phenyl]-5-[2,3-difluoro-4-[1-(2-methoxyethyl)-3-methyl-pyrazol-4-yl]phenyl]-1-methyl-imidazole-2-carboxamide; formate]
9 | 210 | COCCn1cc(-c2ccc(-c3cnc(C(=O)Nc4ccc(C(=O)N5CCN(C(=O)[C@@H]6C[C@H](O)C[N+]6(C)C)CC5)c(Cl)c4)n3C)c(F)c2F)c(C)n1 [Example D10, N-[3-chloro-4-[4-[(2S,4S)-4-hydroxy-1,1-dimethyl-pyrrolidin-1-ium-2-carbonyl]piperazine-1-carbonyl]phenyl]-5-[2,3-difluoro-4-[1-(2-methoxyethyl)-3-methyl-pyrazol-4-yl]phenyl]-1-methyl-imidazole-2-carboxamide; formate]
10 | 270 | COCCCn1cc(-c2ccc(-c3cnc(C(=O)Nc4ccc(C(=O)N5CCN(C(=O)[C@@H]6C[C@@H](O)C[N+]6(C)C)CC5)c(Cl)c4)n3C)c(F)c2F)c(C)n1 [Example D11, N-[3-chloro-4-[4-[(2S,4R)-4-hydroxy-1,1-dimethyl-pyrrolidin-1-ium-2-carbonyl]piperazine-1-carbonyl]phenyl]-5-[2,3-difluoro-4-[1-(3-methoxypropyl)-3-methyl-pyrazol-4-yl]phenyl]-1-methyl-imidazole-2-carboxamide; formate]
11 | 200 | COCCCn1ncc(-c2ccc(-c3cnc(C(=O)Nc4ccc(C(=O)N5CCN(C(=O)[C@@H]6C[C@@H](O)C[N+]6(C)C)CC5)c(Cl)c4)n3C)c(F)c2F)c1C [Example D12, N-[3-chloro-4-[4-[(2S,4R)-4-hydroxy-1,1-dimethyl-pyrrolidin-1-ium-2-carbonyl]piperazine-1-carbonyl]phenyl]-5-[2,3-difluoro-4-[1-(3-methoxypropyl)-5-methyl-pyrazol-4-yl]phenyl]-1-methyl-imidazole-2-carboxamide; formate]
12 | 340 | COCCCn1cc(-c2ccc(-c3cnc(C(=O)Nc4ccc(C(=O)N5CCN(C(=O)[C@@H]6COCC[N+]6(C)C)CC5)c(Cl)c4)n3C)c(F)c2F)c(C)n1 [Example D13, N-[3-chloro-4-[4-[(3S)-4,4-dimethylmorpholin-4-ium-3-carbonyl]piperazine-1-carbonyl]phenyl]-5-[2,3-difluoro-4-[1-(3-methoxypropyl)-3-methyl-pyrazol-4-yl]phenyl]-1-methyl-imidazole-2-carboxamide; formate]
13 | 110 | COCCn1ncc(-c2ccc(-c3cnc(C(=O)Nc4ccc(C(=O)N5CCC(CN6CC[N+](C)(C)CC6=O)CC5)c(Cl)c4)n3C)c(F)c2F)c1C [Example D14, N-[3-chloro-4-[4-[(4,4-dimethyl-2-oxo-piperazin-4-ium-1-yl)methyl]piperidine-1-carbonyl]phenyl]-5-[2,3-difluoro-4-[1-(2-methoxyethyl)-5-methyl-pyrazol-4-yl]phenyl]-1-methyl-imidazole-2-carboxamide; 2,2,2-trifluoroacetate]

same assay, conditions: Acinetobacter baumannii, ATCC17961, 16 h, read-out: ATCC 17961 IC90

Row | Structure (SMILES) | IC90 [nM]
14 | COCCn1cc(-c2ccc(-c3cnc(C(=O)Nc4ccc(C(=O)N5CCN(C(=O)C[N+]6(C)C[C@@H](O)[C@H](O)C6)CC5)c(Cl)c4)n3C)c(F)c2F)c(C)n1 [Example C10, N-[3-chloro-4-[4-[2-[(3R,4R)-3,4-dihydroxy-1-methyl-pyrrolidin-1-ium-1-yl]acetyl]piperazine-1-carbonyl]phenyl]-5-[2,3-difluoro-4-[1-(2-methoxyethyl)-3-methyl-pyrazol-4-yl]phenyl]-1-methyl-imidazole-2-carboxamide; formate] | 280
